Results on 28 compounds are retold here after PubChem BioAssay (NCI).

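Where inhibition never reached the appropriate level, the endpoint shown equals the highest concentration tested. Otherwise, values were interpolated linearly from a five-concentration, 48-hour dose response in 96-well plates. TGI: concentration producing complete growth inhibition.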

In one assay the test system is OVCAR-5 ovarian. In words: NCI anticancer screen, dose series, 48 h.
`c1cc2nnc1SCCSCCSc1ccc(nn1)SCCSCCS2` had a TGI above 100 µM.

As to `O=C(Cc1nc2ccc(C(=O)c3ccccc3)cc2[nH]c1=O)C(=O)Nc1ccc(Br)cc1`, the TGI was above 100 µM.

`Nc1ccccc1Nc1ccccc1C(=O)[O-].Nc1ccccc1Nc1ccccc1C(=O)[O-].[Cu+2]`: the TGI is above 100 µM.

For `Cc1ccccc1C1OC1C(=O)c1ccccc1N` (stereo not drawn), the TGI was above 100 µM.

Turning to `CCOC(=O)C(OCC1CC=CCC1)Sc1ccccc1` (stereo not drawn), the TGI is above 100 µM.

In the next assay the test system is SK-MEL-28 melanoma. Put plainly: NCI anticancer screen, dose series, 48 h.
Take `CC(C)CC(N)C(=O)OCN1C(=O)C2C3C=CC(C2C1=O)C1C2C(=O)N(COC(=O)C(N)CC(C)C)C(=O)C2C31` (stereo not drawn): the TGI is above 100 µM.

For the compound `CC(C)(C)C(=O)C(CC(=O)c1ccccc1)C(=O)C(C)(C)C`, the TGI is above 100 µM.

The compound `COC(=O)c1cc(CC(C)C)c2c(c1)[nH]c1ccccc12` showed a TGI above 100 µM.

As for `Cc1cn(C2C=CC(COP(=O)(OCC3=CC(=O)c4ccccc4C3=O)N(C)CCCCCl)O2)c(=O)[nH]c1=O` (stereo not drawn), the TGI was determined as 18.2 µM.

Regarding `C[N+](C)(C)CC(=O)N/N=c1\cc(C(=O)Nc2ccc(N=O)cc2C#N)oc2cc(O)ccc12`, the TGI was above 100 µM.

The compound `N#CCCN(c1ccc(C=Nc2cccc([N+](=O)[O-])c2)cc1)S(=O)(=O)c1ccccc1` displayed a TGI above 100 µM.

In turn, `COc1ccc(/C(=C/n2ccnc2)C(=O)c2ccc(OC)c(OC)c2)cc1` showed a TGI above 100 µM.

`O=C1CC2(C[C@@H]3CCCCCCCCC[C@@H](C3)C2)N1` (stereo partly drawn) came in with a TGI of 31.5 µM.

`O=C1CC2C=CC(O)C(C1)C2` (stereo not drawn) had a TGI above 100 µM.

`Cc1sc2nc3n(c(=O)c2c1C)N=CN(c1ccccc1)C3` gave a TGI above 100 µM.

`CC(C)C(Sc1nc(-c2ccccc2)c(-c2ccccc2)[nH]1)C(=O)NNC(=S)Nc1ccccc1` (stereo not drawn): the TGI worked out at 41.1 µM.

Regarding `COC1O[C@H]2CCN(C(=O)OCc3ccccc3)[C@H]2[C@H]1OCc1ccccc1` (stereo partly drawn), the TGI was above 100 µM.

Turning to `CC(C)(C)OC(=O)NC(C)(C)C(=O)NCCC(=O)O`, the TGI is above 100 µM.

Compound `COc1ccc(C2C(Cl)C(=O)N2NC(=O)c2ccc(NC(C)=O)cc2)cc1` (stereo not drawn) displayed a TGI above 100 µM.

`c1ccc([P+](CCNCCNCC[P+](c2ccccc2)(c2ccccc2)c2ccccc2)(c2ccccc2)c2ccccc2)cc1` yielded a TGI above 100 µM.

For `c1ccc(C[P+]2(c3ccccc3)c3ccccc3-c3ccccc32)cc1`, the TGI was above 100 µM.

For the compound `Cc1c(Cl)cccc1NC(=O)C(=O)C1C(=O)CC(C)(C)CC1=O`, the TGI is above 100 µM.

`O=C1O[C@@H](c2ccccc2)C[C@@H]1CN1CCOCC1` registered a TGI above 100 µM.

In turn, `COc1ccc2nc(-c3ccc(OCc4ccccc4)cc3)ccc2c1` displayed a TGI above 100 µM.

`CCOc1ccc(N/C(=C(/C(Cl)=C(/Cl)NCCN)[N+](=O)[O-])n2nnc3ccccc32)cc1` gave a TGI above 100 µM.

Compound `N#C/C(=C\NC(=S)Nc1ccc(S(=O)(=O)Nc2ccccn2)cc1)C(N)=O` displayed a TGI above 100 µM.

Compound `CC(=O)NC1C(OCc2ccccc2)OC(CO)C(O)C1OCC(=O)N[C@@H](C)C(=O)N[C@H](CCC(=O)NCCNCCNc1c2ccccc2nc2cccc([N+](=O)[O-])c12)C(N)=O` (stereo partly drawn) showed a TGI above 100 µM.

For the compound `c1cc2nnc1SCCSCCSc1ccc(nn1)SCCSCCS2`, the TGI was above 100 µM.

`O=C(Cc1nc2ccc(C(=O)c3ccccc3)cc2[nH]c1=O)C(=O)Nc1ccc(Br)cc1`: the TGI is above 100 µM.

With `Nc1ccccc1Nc1ccccc1C(=O)[O-].Nc1ccccc1Nc1ccccc1C(=O)[O-].[Cu+2]`, the TGI is above 100 µM.

For the compound `Cc1ccccc1C1OC1C(=O)c1ccccc1N` (stereo not drawn), the TGI is above 100 µM.

The compound `CCOC(=O)C(OCC1CC=CCC1)Sc1ccccc1` (stereo not drawn) registered a TGI above 100 µM.

A further assay concerns SK-MEL-5 melanoma. Put plainly: NCI anticancer screen, dose series, 48 h.
`CC(C)CC(N)C(=O)OCN1C(=O)C2C3C=CC(C2C1=O)C1C2C(=O)N(COC(=O)C(N)CC(C)C)C(=O)C2C31` (stereo not drawn): the TGI is above 100 µM.

For `CC(C)(C)C(=O)C(CC(=O)c1ccccc1)C(=O)C(C)(C)C`, the TGI is above 100 µM.

`COC(=O)c1cc(CC(C)C)c2c(c1)[nH]c1ccccc12` registered a TGI above 100 µM.

In turn, `Cc1cn(C2C=CC(COP(=O)(OCC3=CC(=O)c4ccccc4C3=O)N(C)CCCCCl)O2)c(=O)[nH]c1=O` (stereo not drawn) had a TGI of 2.28 µM.

For the compound `C[N+](C)(C)CC(=O)N/N=c1\cc(C(=O)Nc2ccc(N=O)cc2C#N)oc2cc(O)ccc12`, the TGI was above 100 µM.

`COc1ccc(/C(=C/n2ccnc2)C(=O)c2ccc(OC)c(OC)c2)cc1` gave a TGI above 100 µM.

The compound `O=C1CC2(C[C@@H]3CCCCCCCCC[C@@H](C3)C2)N1` (stereo partly drawn) registered a TGI of 30.6 µM.

Take `Cc1sc2nc3n(c(=O)c2c1C)N=CN(c1ccccc1)C3`: the TGI was above 100 µM.

`CC(C)C(Sc1nc(-c2ccccc2)c(-c2ccccc2)[nH]1)C(=O)NNC(=S)Nc1ccccc1` (stereo not drawn) had a TGI of 25.4 µM.

Take `COC1O[C@H]2CCN(C(=O)OCc3ccccc3)[C@H]2[C@H]1OCc1ccccc1` (stereo partly drawn): the TGI is 64.6 µM.

Regarding `CC(C)(C)OC(=O)NC(C)(C)C(=O)NCCC(=O)O`, the TGI is above 100 µM.

In turn, `COc1ccc(C2C(Cl)C(=O)N2NC(=O)c2ccc(NC(C)=O)cc2)cc1` (stereo not drawn) registered a TGI above 100 µM.

Consider `c1ccc([P+](CCNCCNCC[P+](c2ccccc2)(c2ccccc2)c2ccccc2)(c2ccccc2)c2ccccc2)cc1`, for which the TGI was above 100 µM.

`c1ccc(C[P+]2(c3ccccc3)c3ccccc3-c3ccccc32)cc1` showed a TGI above 100 µM.

`Cc1c(Cl)cccc1NC(=O)C(=O)C1C(=O)CC(C)(C)CC1=O` came in with a TGI above 100 µM.

`O=C1O[C@@H](c2ccccc2)C[C@@H]1CN1CCOCC1` gave a TGI above 100 µM.

Take `COc1ccc2nc(-c3ccc(OCc4ccccc4)cc3)ccc2c1`: the TGI is above 100 µM.

Regarding `N#C/C(=C\NC(=S)Nc1ccc(S(=O)(=O)Nc2ccccn2)cc1)C(N)=O`, the TGI was above 100 µM.

As to `COC1(C)CC2N(C(=O)c3ccccc3)N=C(c3ccccc3)CC2(C)O1` (stereo not drawn), the TGI was above 100 µM.

The compound `CC(=O)NC1C(OCc2ccccc2)OC(CO)C(O)C1OCC(=O)N[C@@H](C)C(=O)N[C@H](CCC(=O)NCCNCCNc1c2ccccc2nc2cccc([N+](=O)[O-])c12)C(N)=O` (stereo partly drawn) gave a TGI of 39.5 µM.

Consider `c1cc2nnc1SCCSCCSc1ccc(nn1)SCCSCCS2`, for which the TGI is above 100 µM.

`O=C(Cc1nc2ccc(C(=O)c3ccccc3)cc2[nH]c1=O)C(=O)Nc1ccc(Br)cc1` yielded a TGI above 100 µM.

`Nc1ccccc1Nc1ccccc1C(=O)[O-].Nc1ccccc1Nc1ccccc1C(=O)[O-].[Cu+2]` showed a TGI above 100 µM.

`Cc1ccccc1C1OC1C(=O)c1ccccc1N` (stereo not drawn): the TGI is above 100 µM.

For the compound `CCOC(=O)C(OCC1CC=CCC1)Sc1ccccc1` (stereo not drawn), the TGI was above 100 µM.

The next assay deals with SK-OV-3 ovarian. In words: NCI anticancer screen, dose series, 48 h.
`CC(C)CC(N)C(=O)OCN1C(=O)C2C3C=CC(C2C1=O)C1C2C(=O)N(COC(=O)C(N)CC(C)C)C(=O)C2C31` (stereo not drawn): the TGI was above 100 µM.

For the compound `CC(C)(C)C(=O)C(CC(=O)c1ccccc1)C(=O)C(C)(C)C`, the TGI is above 100 µM.

In turn, `COC(=O)c1cc(CC(C)C)c2c(c1)[nH]c1ccccc12` displayed a TGI above 100 µM.

In the case of `Cc1cn(C2C=CC(COP(=O)(OCC3=CC(=O)c4ccccc4C3=O)N(C)CCCCCl)O2)c(=O)[nH]c1=O` (stereo not drawn), the TGI is 23 µM.

`C[N+](C)(C)CC(=O)N/N=c1\cc(C(=O)Nc2ccc(N=O)cc2C#N)oc2cc(O)ccc12` returned a TGI above 100 µM.

Regarding `N#CCCN(c1ccc(C=Nc2cccc([N+](=O)[O-])c2)cc1)S(=O)(=O)c1ccccc1`, the TGI was above 100 µM.
